What was measured:
[1] = Long-term/accelerated stability test of crystalline salt forms in sealed aluminum foil bags; assay type: physicochemical; settings: for Crystalline form: after storage
Protocol: The crystalline form α of mesylate, the crystalline form α of sulfate, the crystalline form I of maleate, the crystalline form a of p-toluenesulfonate and the crystalline form a of oxalate were stored in sealed aluminum foil bags and subjected to stability test under the conditions of −20° C., 4° C., 25° C./60% RH and 40° C./75% RH.

ATR enzyme = ATR enzyme (Homo sapiens (Human), UniProt Q13535); assay: Inhibitory effect on ATR enzyme (HTRF, phospho-p53); assay type: biochemical
ATR enzyme, sequence (Q13535 whole entry): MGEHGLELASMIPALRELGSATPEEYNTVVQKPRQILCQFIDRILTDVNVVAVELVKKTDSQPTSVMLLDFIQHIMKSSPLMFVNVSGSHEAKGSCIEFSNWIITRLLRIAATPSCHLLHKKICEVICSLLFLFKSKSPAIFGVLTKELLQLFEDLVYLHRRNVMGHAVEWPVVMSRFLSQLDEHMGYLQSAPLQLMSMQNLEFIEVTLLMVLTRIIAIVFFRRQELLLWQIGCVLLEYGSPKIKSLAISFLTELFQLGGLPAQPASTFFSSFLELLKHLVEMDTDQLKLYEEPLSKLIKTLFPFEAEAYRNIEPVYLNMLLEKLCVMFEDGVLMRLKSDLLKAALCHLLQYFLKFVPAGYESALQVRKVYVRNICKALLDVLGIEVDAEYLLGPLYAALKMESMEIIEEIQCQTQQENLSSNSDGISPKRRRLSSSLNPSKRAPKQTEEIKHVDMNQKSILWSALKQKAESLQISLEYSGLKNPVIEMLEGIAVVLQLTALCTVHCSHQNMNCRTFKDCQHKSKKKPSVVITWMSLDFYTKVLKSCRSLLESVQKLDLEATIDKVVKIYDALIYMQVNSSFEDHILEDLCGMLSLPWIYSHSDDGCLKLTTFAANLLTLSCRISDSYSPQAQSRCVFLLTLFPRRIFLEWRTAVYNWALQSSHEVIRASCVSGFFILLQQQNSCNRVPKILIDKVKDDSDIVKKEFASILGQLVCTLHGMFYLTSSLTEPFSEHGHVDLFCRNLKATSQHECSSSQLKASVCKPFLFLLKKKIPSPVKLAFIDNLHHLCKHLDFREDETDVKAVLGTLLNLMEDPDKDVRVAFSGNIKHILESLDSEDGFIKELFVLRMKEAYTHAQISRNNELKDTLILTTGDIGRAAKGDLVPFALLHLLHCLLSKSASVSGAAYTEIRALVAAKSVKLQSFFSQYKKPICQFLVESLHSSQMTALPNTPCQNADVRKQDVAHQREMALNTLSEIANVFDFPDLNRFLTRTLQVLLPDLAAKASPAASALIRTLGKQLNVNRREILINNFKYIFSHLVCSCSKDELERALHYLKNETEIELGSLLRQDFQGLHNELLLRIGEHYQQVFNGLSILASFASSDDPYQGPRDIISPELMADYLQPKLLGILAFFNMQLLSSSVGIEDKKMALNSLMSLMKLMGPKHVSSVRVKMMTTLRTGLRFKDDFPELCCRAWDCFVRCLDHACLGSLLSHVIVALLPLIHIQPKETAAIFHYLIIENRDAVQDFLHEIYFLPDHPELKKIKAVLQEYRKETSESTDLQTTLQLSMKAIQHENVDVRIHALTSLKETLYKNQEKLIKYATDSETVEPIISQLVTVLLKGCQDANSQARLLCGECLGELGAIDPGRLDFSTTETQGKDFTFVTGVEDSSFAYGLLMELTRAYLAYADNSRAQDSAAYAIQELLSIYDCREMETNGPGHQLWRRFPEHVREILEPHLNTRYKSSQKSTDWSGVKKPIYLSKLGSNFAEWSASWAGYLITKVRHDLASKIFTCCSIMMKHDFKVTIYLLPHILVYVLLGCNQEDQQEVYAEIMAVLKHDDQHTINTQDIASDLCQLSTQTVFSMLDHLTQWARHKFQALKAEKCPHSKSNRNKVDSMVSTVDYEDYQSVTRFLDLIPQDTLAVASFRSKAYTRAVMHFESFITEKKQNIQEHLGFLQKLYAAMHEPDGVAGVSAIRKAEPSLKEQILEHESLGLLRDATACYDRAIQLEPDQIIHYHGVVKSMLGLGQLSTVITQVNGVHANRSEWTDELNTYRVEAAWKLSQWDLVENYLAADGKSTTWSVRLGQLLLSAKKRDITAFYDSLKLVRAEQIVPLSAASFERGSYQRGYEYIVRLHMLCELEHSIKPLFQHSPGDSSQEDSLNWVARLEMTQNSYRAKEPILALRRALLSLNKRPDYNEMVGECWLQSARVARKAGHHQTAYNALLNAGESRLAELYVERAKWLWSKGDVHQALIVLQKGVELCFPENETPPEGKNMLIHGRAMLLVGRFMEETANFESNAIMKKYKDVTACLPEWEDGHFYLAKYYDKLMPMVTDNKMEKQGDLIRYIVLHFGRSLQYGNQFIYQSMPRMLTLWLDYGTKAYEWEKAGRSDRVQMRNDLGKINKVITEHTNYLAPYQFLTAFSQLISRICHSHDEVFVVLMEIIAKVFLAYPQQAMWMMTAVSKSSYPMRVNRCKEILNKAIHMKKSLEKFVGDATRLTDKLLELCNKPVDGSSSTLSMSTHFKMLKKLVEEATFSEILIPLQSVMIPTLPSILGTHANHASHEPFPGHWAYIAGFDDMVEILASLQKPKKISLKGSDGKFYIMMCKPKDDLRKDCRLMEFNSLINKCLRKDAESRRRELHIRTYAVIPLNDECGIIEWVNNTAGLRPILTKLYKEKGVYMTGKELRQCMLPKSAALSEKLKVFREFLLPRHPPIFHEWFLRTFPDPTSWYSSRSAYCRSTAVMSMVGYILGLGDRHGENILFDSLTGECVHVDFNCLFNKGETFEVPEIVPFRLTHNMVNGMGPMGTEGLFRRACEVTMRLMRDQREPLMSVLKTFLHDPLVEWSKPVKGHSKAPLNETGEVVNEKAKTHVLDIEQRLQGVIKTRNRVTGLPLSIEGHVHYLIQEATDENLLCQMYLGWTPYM
ATR enzyme, sequence (Q8WXE1 whole entry partner): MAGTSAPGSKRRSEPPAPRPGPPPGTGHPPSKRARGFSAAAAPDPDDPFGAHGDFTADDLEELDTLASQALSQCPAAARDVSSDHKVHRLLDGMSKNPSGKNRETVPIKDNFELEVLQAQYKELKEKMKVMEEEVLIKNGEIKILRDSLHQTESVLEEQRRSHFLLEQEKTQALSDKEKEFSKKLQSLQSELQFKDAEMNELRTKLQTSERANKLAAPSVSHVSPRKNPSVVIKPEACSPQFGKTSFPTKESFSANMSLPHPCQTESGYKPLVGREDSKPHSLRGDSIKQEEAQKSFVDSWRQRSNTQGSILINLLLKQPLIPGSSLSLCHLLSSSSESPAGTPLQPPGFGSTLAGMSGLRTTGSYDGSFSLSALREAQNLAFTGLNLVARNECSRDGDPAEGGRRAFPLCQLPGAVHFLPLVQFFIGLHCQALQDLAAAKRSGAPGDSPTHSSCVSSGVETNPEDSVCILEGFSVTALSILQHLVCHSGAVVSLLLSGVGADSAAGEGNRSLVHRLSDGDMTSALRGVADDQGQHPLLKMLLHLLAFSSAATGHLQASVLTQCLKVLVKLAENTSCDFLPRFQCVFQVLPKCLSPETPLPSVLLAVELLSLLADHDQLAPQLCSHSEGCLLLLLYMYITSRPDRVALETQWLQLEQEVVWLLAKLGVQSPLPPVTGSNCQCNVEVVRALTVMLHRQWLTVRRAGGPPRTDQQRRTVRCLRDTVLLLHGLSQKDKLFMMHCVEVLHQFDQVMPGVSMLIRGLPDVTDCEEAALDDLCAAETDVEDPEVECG
Description: The following method was used to determine the inhibitory effect of the compounds disclosed herein on ATR enzyme. The experimental method was briefly described as follows:
• 1. ATR enzyme (Eurofins Pharma Discovery Services, 14-953-M) • 2. GST-tag P53 protein (Eurofins Pharma Discovery Services, 14-952-M) • 3. 384-well plate (Thermo Scientific, 267462) • 4. U-shaped bottom 96-well plate (Corning, 3795) • 5. MAb Anti-phospho p53-Eu cryptate (Cisbio, 61P08KAE) • 6. MAb Anti GST-d2 (Cisbio, 61GSTDLF) • 7. ATP solution (Promega, V916B) • 8. EDTA (Thermo Scientific, AM9260G) • 9. HEPES (Gibco, 15630-080) • 10. Microplate reader (BMG, PHERAsta)
1 nM ATR enzyme, 50 nM P53 protein, 7.435 μM ATP and small molecule compounds of different concentrations (serially 3-fold diluted from 1 μM to the 11th concentration) were mixed and incubated at room temperature for 2 h. A terminating buffer (12.5 mM HEPES, 250 mM EDTA) was added. The mixture was well mixed before 0.42 ng/well of mAb anti-phospho p53-Eu cryptate and 25 ng/well of mAb anti GST-d2 were added. The mixture was incubated overnight at room temperature, and the fluorescence signals at 620 nm and 665 nm were detected using a PHERAstar system. Data were processed using GraphPad software.

LoVo cells = assay: Cell proliferation assay (intracellular ATP content, CellTiter-Glo); assay type: cell-based, human; settings: 3 days
Description: The following method evaluates the inhibitory effect of the compounds disclosed herein on the proliferation of LoVo cells via IC50 by measuring the intracellular ATP content. The experimental method was briefly described as follows:
• 1. LoVo, human colon cancer cells (Cobioer, Nanjing, CBP60032) • 2. Fetal bovine serum (GIBCO, 10091-148) • 3. F-12K Medium (Gibco, 21127030) • 4. CellTite-Glo reagent (Promega, G7573) • 5. 96-well cell culture plate (Corning, 3903) • 6. Pancreatin (Invitrogen, 25200-072) • 7. Microplate reader (BMG, PHERAsta) • 8. Cell counter (Countstar, Shanghai, IC1000)
LoVo cells were cultured in an F-12K culture medium containing 10% of FBS, and passaged twice or thrice a week in a passage ratio of 1:3 or 1:5. During passage, cells were digested by pancreatin, transferred to a centrifuge tube, and centrifuged for 3 min at 1200 rpm. The supernatant was discarded, and fresh culture medium was added to resuspend the cells. To a 96-well cell culture plate, 90 μL of the cell suspension was added at a density of 3.88×10^4 cells/mL. To peripheral wells of the 96-well plate, only 100 μL of complete medium was added. […]
The test samples were each diluted to 2 mM in DMSO and serially 3-fold diluted to the 10th concentration. […] The chemiluminescence signals were read by a PHERAstar system, and the data were processed by GraphPad software.

[2] = Pharmacokinetic study in rats after intragastric administration; assay type: in vivo; settings: both sexes, rat, plasma, po, SD rats, 2 mg/kg
Protocol: The drug concentrations in the plasma of the test animals (rats) at different time points after intragastric administration of the compound of Example 1 were determined by an LC/MS/MS method. The pharmacokinetic behavior in rats of the compound disclosed herein was studied and its pharmacokinetic profile was evaluated.
12 healthy adult SD rats (half male and half female; purchased from Vital River) were evenly divided into 3 groups of 4.
A certain amount of the compound was added to a mixed solvent containing 5% of DMSO, 5% of Tween 80 and 90% of normal saline to obtain a colorless and clear solution.
SD rats were intragastrically administered with the compound after fasting overnight, at a dose of 2 mg/kg and a volume of 10.0 mL/kg.
Rats were intragastrically administered with the compound of Examples 1. 0.2 mL of blood was collected from the orbit pre-dose and at 0.25, 0.5, 1.0, 2.0, 4.0, 6.0, 8.0, 11.0 and 24.0 h post-dose. The blood samples were transferred to EDTA-K2kk anticoagulation tubes, centrifuged at 4° C. and 11000 rpm for 5 min to separate out plasma. The plasma samples were stored at −20° C. The rats were fed 2 h after administration.
The plasma concentration of the compound in rats after intragastric administration was determined: 25 μL of rat plasma at each time point post-dose was mixed with 50 μL of internal standard and 175 μL of acetonitrile; the mixture was vortexed for 5 min and centrifuged for 10 min at 4000 rpm. 1 μL of supernatant was taken for LC/MS/MS analysis.

[3] = long-term/accelerated stability test, overall
[4] = Initial, printed in the 25° C./60% RH row

| Purity (%) ([1]; 4° C., 1 month) | Purity (%) ([1]; 4° C., 2 months) | Purity (%) ([1]; 4° C., 3 months) | Crystalline form ([1]; 4° C.) | Purity (%) ([1]; 25° C./60% RH, 1 month) | Purity (%) ([1]; 25° C./60% RH, 2 months) | Purity (%) ([1]; 25° C./60% RH, 3 months) | Crystalline form ([1]; 25° C./60% RH) | Chemical stability (in words) ([1]; 40° C. and 75% RH) | Purity (%) ([1]; 40° C./75% RH, 1 month) | Purity (%) ([1]; 40° C./75% RH, 2 months) | Purity (%) ([1]; 40° C./75% RH, 3 months) | Crystalline form ([1]; 40° C./75% RH) | Purity (%) ([1]; Initial) | Purity (%) ([1]; −20° C., 1 month) | Purity (%) ([1]; −20° C., 2 months) | Purity (%) ([1]; −20° C., 3 months) | Crystalline form ([1]; −20° C.) | Chemical stability (in words) [1, 3] | Purity (%) [1, 4] [%] | Structure (SMILES) | other results |
| --- | --- | --- | --- | --- | --- | --- | --- | --- | --- | --- | --- | --- | --- | --- | --- | --- | --- | --- | --- | --- | --- |
| 98.99 | 98.99 | 99.00 | Unchanged | 98.84 | 98.82 | 98.77 | Unchanged | slightly degraded | 98.59 | 98.26 | 98.30 | Unchanged | 98.97 | 99.04 | 99.00 | 99.00 | Unchanged |  |  | CC1COCCN1c1cc(C(C)(C)C#N)c2c(n1)c(-c1cc[nH]n1)nn2C.O=C(O)C=CC(=O)O (stereo not shown) [Crystalline form I of maleate] |  |
| 99.54 | 99.60 | 99.55 | Unchanged | 99.53 | 99.58 | 99.52 | Unchanged |  | 99.40 | 99.39 | 99.40 | Unchanged | 99.57 | 99.57 | 99.51 | 99.46 | Unchanged | relatively stable |  | CC1COCCN1c1cc(C(C)(C)C#N)c2c(n1)c(-c1cc[nH]n1)nn2C.CC1COCCN1c1cc(C(C)(C)C#N)c2c(n1)c(-c1cc[nH]n1)nn2C.O=C(O)C(=O)O (stereo not shown) [Crystalline form a of oxalate] |  |
| 98.13 | 98.19 | 98.17 | Unchanged | 98.41 | 98.07 | 98.18 | Unchanged |  | 97.31 | 96.90 | 95.57 | Unchanged | 98.69 | 98.46 | 98.46 | 98.66 | Unchanged | slightly poor stability |  | CC1COCCN1c1cc(C(C)(C)C#N)c2c(n1)c(-c1cc[nH]n1)nn2C.Cc1ccc(S(=O)(=O)O)cc1 (stereo not shown) [Crystalline form a of p-toluenesulfonate] |  |
| 98.66 | 98.65 | 98.64 | Unchanged | 98.53 | 98.54 | 98.62 | Unchanged | slightly degraded | 97.00 | 97.56 | 95.66 | Unchanged | 98.72 | 98.73 | 98.69 | 98.61 | Unchanged |  | 98.49 | CC1COCCN1c1cc(C(C)(C)C#N)c2c(n1)c(-c1cc[nH]n1)nn2C.CS(=O)(=O)O (stereo not drawn) [Crystalline form α of mesylate] |  |
| 97.07 | 97.29 |  | Unchanged | 93.00 | 92.90 |  | Unchanged |  | 89.37 | 83.97 |  | Unchanged | 97.55 | 97.62 | 97.56 |  | Unchanged | slightly poor stability | 97.70 | CC1COCCN1c1cc(C(C)(C)C#N)c2c(n1)c(-c1cc[nH]n1)nn2C.O=S(=O)(O)O (stereo not drawn) [Crystalline form α of sulfate] |  |
|  |  |  |  |  |  |  |  |  |  |  |  |  |  |  |  |  |  |  |  | C[C@@H]1COCCN1c1cc(C(C)(C)C#N)c2c(n1)c(-c1cc[nH]n1)nn2C [Example 1, (R)-2-methyl-2-(1-methyl-5-(3-methylmorpholino)-3-(1H-pyrazol-3-yl)-1H-pyrazolo[4,3-b]pyridin-7-yl)propanenitrile] | IC50 (ATR enzyme; 1 nM ATR enzyme, 50 nM P53 protein, 7.435 μM ATP, 2 h, read-out: IC50 for ATR enzyme inhibition): 3 nM; Max Inhibition (%) (ATR enzyme; ATR enzyme): 100%; Max Inhibition (%) (LoVo cells): 93%; Vd/F ([2]; read-out: Apparent volume of distribution Vz/F): 2.06 ± 1.22 L/kg; AUC ([2]; read-out: Area under curve AUC): 3200 ± 2750 ng·h/mL; CL/F ([2]; read-out: Clearance CL/F): 17.7 ± 12.4 mL/min/kg; half-life ([2]; read-out: Half-life T1/2 (converted)): 2.62 ± 2.48 h; Cmax ([2]; read-out: Plasma concentration Cmax): 1110 ± 394 ng/mL; MRT ([2]; read-out: Residence time MRT): 3.08 ± 2.31 h |

Source: patent US20240262823A1, “PHARMACEUTICALLY ACCEPTABLE SALT OF PYRAZOLOHETEROARYL DERIVATIVE AND CRYSTAL FORM THEREOF” (JIANGSU HENGRUI PHARMACEUTICALS CO., LTD., priority 2021, published 2024)
